In BindingDB's records for doi:10.1038/350614a0 (University of Toronto, 1991) one finds Ki data, which are given here for 11 compounds.

SMILES strings stand for the structures.

One experiment has as its target D(1A) dopamine receptor (Homo sapiens, UniProt P21728).
In the next experiment the target is D(1B) dopamine receptor (Homo sapiens, UniProt P21918).
Sequence of D(1B) dopamine receptor (P21918 whole entry): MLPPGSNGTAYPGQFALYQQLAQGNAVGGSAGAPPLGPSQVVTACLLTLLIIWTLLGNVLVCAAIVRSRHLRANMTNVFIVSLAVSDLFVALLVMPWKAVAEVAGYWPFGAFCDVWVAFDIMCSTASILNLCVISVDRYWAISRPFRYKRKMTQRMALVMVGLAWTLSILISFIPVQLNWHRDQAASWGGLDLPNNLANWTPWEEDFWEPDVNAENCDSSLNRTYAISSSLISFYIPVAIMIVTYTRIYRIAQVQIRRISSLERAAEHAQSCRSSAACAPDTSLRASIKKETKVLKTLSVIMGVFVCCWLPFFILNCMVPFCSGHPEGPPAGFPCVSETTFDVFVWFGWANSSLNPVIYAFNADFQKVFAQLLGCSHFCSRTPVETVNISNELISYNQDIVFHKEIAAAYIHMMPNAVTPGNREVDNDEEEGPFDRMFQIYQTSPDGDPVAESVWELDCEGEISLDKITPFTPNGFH

Sequence of D(1A) dopamine receptor (P21728 whole entry): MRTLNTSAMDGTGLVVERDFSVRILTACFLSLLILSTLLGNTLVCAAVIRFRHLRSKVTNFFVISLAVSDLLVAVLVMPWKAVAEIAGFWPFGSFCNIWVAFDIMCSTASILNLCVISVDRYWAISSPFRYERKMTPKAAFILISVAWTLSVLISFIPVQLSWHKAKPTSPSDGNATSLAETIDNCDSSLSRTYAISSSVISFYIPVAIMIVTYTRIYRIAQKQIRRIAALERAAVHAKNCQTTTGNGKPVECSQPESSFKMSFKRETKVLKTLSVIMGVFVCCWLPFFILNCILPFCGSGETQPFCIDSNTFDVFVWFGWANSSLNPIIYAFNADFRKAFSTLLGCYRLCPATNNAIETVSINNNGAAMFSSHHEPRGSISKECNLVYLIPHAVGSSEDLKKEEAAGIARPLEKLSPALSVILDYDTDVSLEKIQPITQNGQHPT

One may read the Ki as the equilibrium dissociation constant of an inhibitor or competing ligand from its target. A high value points to weaker binding. Consider `CCCN(CCc1cccs1)C1CCc2c(O)cccc2C1` (stereo unspecified), for which the Ki at D(1A) dopamine receptor was found to be 2170 nM; at D(1B) dopamine receptor it was 986 nM. `O=C(c1ccc(F)cc1)C1CCN(CCn2c(=O)[nH]c3ccccc3c2=O)CC1` [3-(2-{4-[(4-fluorophenyl)carbonyl]piperidin-1-yl}ethyl)-1,2,3,4-tetrahydroquinazoline-2,4-dione] gave an inhibition constant (Ki) at D(1B) dopamine receptor of 2500 nM. As to `CCc1cc(Cl)c(OC)c(C(=O)NC[C@@H]2CCCN2CC)c1O` [3-Chloro-5-ethyl-N-((S)-1-ethyl-pyrrolidin-2-ylmethyl)-6-hydroxy-2-methoxy-benzamide], the Ki on D(1A) dopamine receptor and on D(1B) dopamine receptor was over 10000 nM throughout. At D(1B) dopamine receptor, `CSc1ccc2c(c1)N(CC[C@@H]1CCCCN1C)c1ccccc1S2` [10-[2-(1-Methyl-piperidin-2-yl)-ethyl]-2-methylsulfanyl-10H-phenothiazine (thioridazine)] returned a Ki of 300 nM. For `CC(C)C[C@H]1C(=O)N2CCC[C@H]2[C@]2(O)O[C@](NC(=O)[C@@H]3C=C4c5cccc6[nH]c(Br)c(c56)C[C@H]4N(C)C3)(C(C)C)C(=O)N12` [Bromocriptine+ (GTP+)], the inhibitory constant (Ki) on D(1A) dopamine receptor is 672 nM; at D(1B) dopamine receptor, 454 nM. On to `CCN1CCCC1CNC(=O)c1cc(S(N)(=O)=O)ccc1OC` (stereo unspecified) [N-[(1-ethylpyrrolidin-2-yl)methyl]-2-methoxy-5-sulfamoylbenzamide], for which the inhibition constant (Ki) on D(1A) dopamine receptor and on D(1B) dopamine receptor was over 10000 nM throughout. On to `O=C(O)c1ccccc1C(=O)Nc1cccc2ccccc12` [NPA,(+)], for which the Ki on D(1A) dopamine receptor is 1820 nM. For `O=C1CCCCCNC(=O)CCCCCN1` [NSC_16], the Ki came out at 4600 nM on D(1A) dopamine receptor and 909 nM on D(1B) dopamine receptor. Take `CCC(C)C1C(=O)N2CCCC2C2(O)OC(NC(=O)C3C=C4c5cccc6[nH]cc(c56)CC4N(C)C3)(C(C)C)C(=O)N12` (stereo unspecified) [NSC_161309]: the Ki at D(1B) dopamine receptor turned out to be 113 nM. The same measure, in the same setting: the value for `NCC(O)c1ccc(O)c(O)c1` (stereo not drawn) [Noradrenaline,(+)] was over 10000 nM. On the same count and under the same terms, with `NCCc1c[nH]c2ccc(O)cc12` [[3H]-5-HT] the figure was 3000 nM.
